The nature of series [1]: Metal chelating activity assessed as Fe2+-compound complex fromation at 3 uM incubated for 5 mins in presence of ferrous chloride hexahydrate followed by ferrozine addition measured after 10 mins. The series is classed as physicochemical.
A short description of series [2]: Antioxidant activity assessed as DPPH free radical scavenging activity at 3 uM after 30 mins incubation in dark. The series is classed as functional. (In general: The DPPH test is a chemical assay of radical scavenging.)
A short description of series [3]: Neuroprotective activity against H2O2-induced oxidative stress in human SH-SY5Y cells assessed as cell viability at 3 uM preincubated for 24 hrs followed by H2O2 addition for 1 hr measured after 17 hrs by MTT assay relative to control. Format: functional. Particulars: read-out: Activity. Background: Tetrazolium dyes change colour on reduction, which living cells bring about.

The target in series [4] is Serine/threonine-protein kinase mTOR (Homo sapiens) (UniProt P42345). Put plainly: Induction of mTOR phosphorylation in human SH-SY5Y cells at 3 uM preincubated for 24 hrs followed by H2O2 addition for 1 hr by pathscan sandwich immunoassay. The series is classed as cell-based.
Series [5] can be described thus: Neurotoxicity against human SH-SY5Y cells assessed as reduction in cell viability at 10 uM after 24 hrs by MTT assay. Format: toxicity, cell-based.
Series [6] addresses T1, Bcl2-associated agonist of cell death (Homo sapiens) (UniProt Q92934).
T1 sequence (whole entry): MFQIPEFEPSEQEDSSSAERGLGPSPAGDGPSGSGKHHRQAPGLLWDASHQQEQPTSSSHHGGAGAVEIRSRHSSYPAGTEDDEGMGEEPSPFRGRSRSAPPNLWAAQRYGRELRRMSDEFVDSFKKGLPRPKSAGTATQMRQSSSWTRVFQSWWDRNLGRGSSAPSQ
Kind of series: Induction of BAD phosphorylation in human SH-SY5Y cells at 3 uM preincubated for 24 hrs followed by H2O2 addition for 1 hr by pathscan sandwich immunoassay. Format: cell-based.

Series [7] in a line: Antioxidant activity assessed as DPPH free radical scavenging activity after 30 mins incubation in dark by UV-Vis spectrophotometric analysis. Format: functional.
Series [8] is described as follows: Neurotoxicity against human SH-SY5Y cells assessed as reduction in cell viability at 3 to 10 uM after 24 hrs by MTT assay. The series is classed as toxicity, cell-based.
Series [9] addresses Mitogen-activated protein kinase; ERK1/ERK2 (Homo sapiens) (UniProt P27361+P28482). Put plainly: Induction of ERK1/2 phosphorylation in human SH-SY5Y cells at 3 uM preincubated for 24 hrs followed by H2O2 addition for 1 hr by pathscan sandwich immunoassay. The series is classed as cell-based.
A further series has as its system SH-SY5Y. Put plainly: Induction of AMPKalpha phosphorylation in human SH-SY5Y cells at 3 uM preincubated for 24 hrs followed by H2O2 addition for 1 hr by pathscan sandwich immunoassay. Format: cell-based.
Series [10] is described as follows: Neuroprotective activity in human SH-SY5Y cells assessed as protection against H2O2-induced oxidative stress at 0.3 uM preincubated for 24 hrs followed by H2O2 addition for 1 hr measured after 17 hrs by MTT assay relative to control. Format: functional, cell-based.
Series [11] concerns the target Proline-rich AKT1 substrate 1 (Homo sapiens) (UniProt Q96B36). Put plainly: Induction of PRAS40 phosphorylation in human SH-SY5Y cells at 3 uM preincubated for 24 hrs followed by H2O2 addition for 1 hr by pathscan sandwich immunoassay. Format: cell-based.
Series [12] in a line: Antioxidant activity assessed as DPPH free radical scavenging activity after 30 mins incubation in dark. Format: functional.
Series [13] in a line: Metal chelating activity assessed as Fe2+-compound complex fromation incubated for 5 mins in presence of ferrous chloride hexahydrate followed by ferrozine addition measured after 10 mins.

Calls of active or inactive are those of the source. No cut-off for these calls is given here.

Sequence of Mitogen-activated protein kinase; ERK1/ERK2 (Homo sapiens) (P27361 whole entry, looked up): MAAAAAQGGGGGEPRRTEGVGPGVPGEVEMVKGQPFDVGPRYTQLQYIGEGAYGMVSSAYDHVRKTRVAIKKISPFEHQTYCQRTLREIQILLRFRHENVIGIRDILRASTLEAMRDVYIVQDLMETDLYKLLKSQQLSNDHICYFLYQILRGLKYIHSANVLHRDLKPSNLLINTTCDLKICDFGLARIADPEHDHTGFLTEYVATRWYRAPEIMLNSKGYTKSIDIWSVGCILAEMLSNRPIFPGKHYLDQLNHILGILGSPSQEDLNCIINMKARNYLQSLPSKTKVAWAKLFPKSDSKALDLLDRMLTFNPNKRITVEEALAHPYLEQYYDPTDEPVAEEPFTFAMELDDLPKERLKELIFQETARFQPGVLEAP
Sequence of Mitogen-activated protein kinase; ERK1/ERK2 (Homo sapiens) (P28482 whole entry, looked up): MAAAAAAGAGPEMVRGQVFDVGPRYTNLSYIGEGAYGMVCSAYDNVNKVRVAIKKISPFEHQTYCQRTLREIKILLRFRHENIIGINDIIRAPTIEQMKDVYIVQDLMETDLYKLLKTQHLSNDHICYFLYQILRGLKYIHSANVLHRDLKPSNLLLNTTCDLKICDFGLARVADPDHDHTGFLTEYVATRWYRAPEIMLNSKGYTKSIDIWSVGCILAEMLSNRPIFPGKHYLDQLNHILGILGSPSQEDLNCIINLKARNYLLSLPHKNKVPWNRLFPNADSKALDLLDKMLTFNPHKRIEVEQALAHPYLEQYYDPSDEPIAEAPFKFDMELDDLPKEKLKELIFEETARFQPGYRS

Regarding `O=c1cc(-c2ccc(Cl)cc2)oc2c(O)c(O)ccc12`, the results for the Activity in series [1] and in [2] were 3.7% and 1.4%, respectively. Besides, in series [3], the viability at 3 µM was 93.4%. The result in series [4] was Active.
For `Oc1ccc2c(=S)cc(-c3ccc(Br)cc3)oc2c1O`, the Activity was 4.4% in series [1], 52% in [5] and 1.6% in [2]. Also, the result in [6] was Active. In [3], the viability at 3 µM is 97.8%.
Take `Oc1ccc2c(=S)cc(-c3cccs3)oc2c1O`: the viability at 3 µM in series [3] was less than 60%.
On to `N#Cc1ccc(-c2cc(=O)c3ccc(O)c(O)c3o2)cc1`, for which the viability at 3 µM in series [3] was 84.6%.
Regarding `O=c1cc(-c2ccccc2)oc2c(O)c(O)ccc12` [7,8-DIHYDROXYFLAVONE], the Activity in series [1] was 3.7%; in [8], “Non-Toxic”; in series [2], 1.4%. For the same compound, the concentration for half-maximal inhibition (IC50) in [7] came to 15.5 µM. In addition, the result in [6] was Active. Further, in series [3], the viability at 3 µM lay within 96.2 to 97%.
With `O=c1cc(-c2ccc(F)cc2)oc2c(O)c(O)ccc12`, the Activity result in [8] is recorded as “Non-Toxic”. In series [3], the viability at 3 µM came out at 88.8%.
For `Oc1ccc2c(=S)cc(-c3ccc(Cl)cc3)oc2c1O`, the Activity in [1] was 5%; in series [8], “Non-Toxic”; in series [10], greater than 70%; in series [2], 1.7%. Further, the result (in [9]; with SH-SY5Y; in series [6]; in series [11]; in [4]) was Active. Further, the viability at 3 µM in [3] was 107%.
On to `Oc1cc(O)c2c(=S)cc(-c3ccc(O)c(O)c3)oc2c1`, for which, in series [8], the Activity entry is “Non-Toxic”. For the same compound, in [3], the viability at 3 µM lay within 67.4 to 73%.
Regarding `Oc1ccc2c(=S)cc(-c3cccnc3)oc2c1O`, in series [3], the viability at 3 µM was less than 60%.
The same measure, in the same setting: as for `O=c1cc(-c2cccnc2)oc2c(O)c(O)ccc12`, the figure is less than 60%.
On to `O=c1cc(-c2ccco2)oc2c(O)c(O)ccc12`, for which the viability at 3 µM in series [3] is less than 60%.
Still for that read-out and setting: in the case of `Oc1cc(O)c2c(=S)cc(-c3ccccc3)oc2c1` it was less than 50%.
`O=C1O[C@H]([C@@H](O)CO)C(O)=C1O` [ASCORBIC ACID]: in series [12], the half-inhibitory concentration (IC50) was 330 µM. Besides, the Activity in series [2] was 1.3%.
Take `O=c1cc(-c2ccccc2)oc2cc(O)cc(O)c12` [CHRYSIN]: the viability at 3 µM in series [3] is less than 50%.
Consider `Oc1ccc2c(=S)cc(-c3ccccc3)oc2c1O`, for which the viability at 3 µM in series [3] is 72.4%.
As for `O=c1cc(-c2ccc(Br)cc2)oc2c(O)c(O)ccc12`, the Activity entry in series [8] is “Non-Toxic”. The viability at 3 µM in series [3] amounted to 84%.
Take `Oc1ccc2c(=S)cc(-c3ccco3)oc2c1O`: the viability at 3 µM in series [3] was less than 60%.
Turning to `Oc1ccc2c(=S)cc(-c3ccc(F)cc3)oc2c1O`, the Activity result in [8] is recorded as “Non-Toxic”. Also, in series [3], the viability at 3 µM is 97.4%.
On to `O=C(O)CN(CCN(CC(=O)O)CC(=O)O)CC(=O)O` [EDETIC ACID], for which the Activity in series [1] was determined as 6.9%. In [13], the concentration for half-maximal inhibition (IC50) is 42 µM.
On to `O=c1cc(-c2ccc(O)c(O)c2)oc2cc(O)cc(O)c12` [LUTEOLIN], for which the results for the Activity in [1] and in [2] were 3.4% and 1.9%, respectively. Also, in series [3], the viability at 3 µM came to 98.3%.
For the compound `N#Cc1ccc(-c2cc(=S)c3ccc(O)c(O)c3o2)cc1`, the Activity in series [1] is 3.9%; in series [8] it was “Non-Toxic”; in [10], greater than 70%; in series [2] it was 1.3%. Moreover, the outcome (in series [9]; in the series on SH-SY5Y; in [4]) was Active. In addition, the viability at 3 µM in series [3] was 106%.
As to `O=c1cc(-c2cccs2)oc2c(O)c(O)ccc12`, the viability at 3 µM in [3] is less than 60%.

One may read the IC50 as the midpoint of a concentration-inhibition curve.
